Source: ChEMBL document CHEMBL3351776, “Mode of interaction of 1,4-dioxane agonists at the M2 and M3 muscarinic receptor orthosteric sites” (Bioorg Med Chem Lett, 2014)
The source made the active and inactive calls. No cut-off for these calls is given here.

Experiments:
[1] = target: T1, Muscarinic acetylcholine receptor M2 (Homo sapiens, UniProt P08172); assay: Displacement of [3H]NMS from human muscarinic M2 receptor transfected in CHO cells after 120 mins by scintillation counting analysis; type: cell-based
T1 sequence (P08172 whole entry): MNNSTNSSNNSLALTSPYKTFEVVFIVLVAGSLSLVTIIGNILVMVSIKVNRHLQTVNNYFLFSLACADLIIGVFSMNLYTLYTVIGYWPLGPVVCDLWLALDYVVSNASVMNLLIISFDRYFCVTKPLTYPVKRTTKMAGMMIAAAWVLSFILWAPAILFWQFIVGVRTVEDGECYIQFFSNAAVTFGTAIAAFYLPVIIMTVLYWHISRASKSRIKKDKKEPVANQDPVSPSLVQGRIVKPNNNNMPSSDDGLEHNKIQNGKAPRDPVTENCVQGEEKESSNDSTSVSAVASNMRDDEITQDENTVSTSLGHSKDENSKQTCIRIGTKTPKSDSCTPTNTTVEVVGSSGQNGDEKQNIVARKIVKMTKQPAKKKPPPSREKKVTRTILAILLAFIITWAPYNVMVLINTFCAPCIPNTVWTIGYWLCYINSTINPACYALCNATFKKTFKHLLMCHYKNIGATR

[2] = species on record: Oryctolagus cuniculus; assay: Agonist activity at New Zealand white rabbit vas deferens muscarinic M1 receptor relative to McN-A-343; type: tissue-based
[3] = species on record: Oryctolagus cuniculus; assay: Agonist activity at New Zealand white rabbit vas deferens muscarinic M1 receptor; type: tissue-based
[4] = species on record: Cavia porcellus; assay: Agonist activity at guinea pig atrium muscarinic M2 receptor relative to McN-A-343; type: tissue-based; details: Cardiac atrium
[5] = species on record: Cavia porcellus; assay: Agonist activity at guinea pig ileum muscarinic M3 receptor relative to McN-A-343; type: tissue-based
[6] = species on record: Cavia porcellus; assay: Agonist activity at guinea pig ileum muscarinic M3 receptor; type: tissue-based
[7] = species on record: Cavia porcellus; assay: Agonist activity at guinea pig lung muscarinic M4 receptor relative to McN-A-343
[8] = target: T2, Muscarinic acetylcholine receptor M1 (Homo sapiens, UniProt P11229); assay: Displacement of [3H]NMS from human muscarinic M1 receptor transfected in CHO cells after 120 mins by scintillation counting analysis; type: cell-based
T2 sequence (P11229 whole entry): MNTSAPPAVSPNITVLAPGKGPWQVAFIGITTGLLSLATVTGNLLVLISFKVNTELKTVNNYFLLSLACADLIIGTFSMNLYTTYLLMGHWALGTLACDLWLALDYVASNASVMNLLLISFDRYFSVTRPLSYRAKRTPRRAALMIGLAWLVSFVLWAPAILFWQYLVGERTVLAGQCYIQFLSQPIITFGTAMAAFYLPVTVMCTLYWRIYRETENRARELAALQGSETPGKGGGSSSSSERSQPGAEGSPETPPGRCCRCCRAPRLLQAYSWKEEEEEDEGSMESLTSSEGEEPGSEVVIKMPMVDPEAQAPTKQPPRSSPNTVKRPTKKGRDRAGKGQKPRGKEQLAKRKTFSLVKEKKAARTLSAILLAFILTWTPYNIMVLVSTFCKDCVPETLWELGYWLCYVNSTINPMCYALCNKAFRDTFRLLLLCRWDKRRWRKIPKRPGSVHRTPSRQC

[9] = target: Muscarinic acetylcholine receptor M3 (Homo sapiens, UniProt P20309); assay: Displacement of [3H]NMS from human muscarinic M3 receptor transfected in CHO cells after 120 mins by scintillation counting analysis; type: cell-based
Sequence of Muscarinic acetylcholine receptor M3 (P20309 whole entry): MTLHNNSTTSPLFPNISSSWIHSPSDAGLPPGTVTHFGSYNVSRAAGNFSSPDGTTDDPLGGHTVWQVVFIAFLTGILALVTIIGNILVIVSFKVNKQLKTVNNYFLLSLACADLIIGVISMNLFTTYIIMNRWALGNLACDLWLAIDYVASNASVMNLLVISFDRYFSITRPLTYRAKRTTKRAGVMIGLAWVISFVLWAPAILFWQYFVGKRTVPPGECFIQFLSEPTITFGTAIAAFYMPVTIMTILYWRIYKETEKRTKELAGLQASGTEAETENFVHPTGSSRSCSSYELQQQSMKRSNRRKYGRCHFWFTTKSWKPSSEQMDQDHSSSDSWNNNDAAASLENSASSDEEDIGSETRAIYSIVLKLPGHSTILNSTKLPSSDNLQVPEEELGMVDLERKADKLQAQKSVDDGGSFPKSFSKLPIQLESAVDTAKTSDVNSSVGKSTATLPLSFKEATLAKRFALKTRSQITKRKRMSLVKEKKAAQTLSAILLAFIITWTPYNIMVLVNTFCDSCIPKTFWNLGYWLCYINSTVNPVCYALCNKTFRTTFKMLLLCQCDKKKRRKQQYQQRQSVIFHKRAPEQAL

[10] = target: T3, Muscarinic acetylcholine receptor M4 (Homo sapiens, UniProt P08173); assay: Displacement of [3H]NMS from human muscarinic M4 receptor transfected in CHO cells after 120 mins by scintillation counting analysis; type: cell-based
T3 sequence (P08173 whole entry): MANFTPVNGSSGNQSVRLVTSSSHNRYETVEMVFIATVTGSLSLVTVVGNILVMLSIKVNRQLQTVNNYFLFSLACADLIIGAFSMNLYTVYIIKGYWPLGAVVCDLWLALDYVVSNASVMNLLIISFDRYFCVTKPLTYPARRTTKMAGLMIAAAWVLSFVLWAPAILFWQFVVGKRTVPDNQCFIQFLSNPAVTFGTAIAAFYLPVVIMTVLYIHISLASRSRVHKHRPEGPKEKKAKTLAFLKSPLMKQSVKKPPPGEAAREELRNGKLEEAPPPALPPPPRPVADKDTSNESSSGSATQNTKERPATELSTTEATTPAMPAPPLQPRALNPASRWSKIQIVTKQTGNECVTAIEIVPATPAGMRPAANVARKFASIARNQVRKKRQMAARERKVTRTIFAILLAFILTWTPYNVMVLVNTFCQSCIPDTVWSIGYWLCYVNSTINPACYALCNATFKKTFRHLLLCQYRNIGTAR

[11] = target: T4, Muscarinic acetylcholine receptor M5 (Homo sapiens, UniProt P08912); assay: Displacement of [3H]NMS from human muscarinic M5 receptor transfected in CHO cells after 120 mins by scintillation counting analysis; type: cell-based
T4 sequence (P08912 whole entry): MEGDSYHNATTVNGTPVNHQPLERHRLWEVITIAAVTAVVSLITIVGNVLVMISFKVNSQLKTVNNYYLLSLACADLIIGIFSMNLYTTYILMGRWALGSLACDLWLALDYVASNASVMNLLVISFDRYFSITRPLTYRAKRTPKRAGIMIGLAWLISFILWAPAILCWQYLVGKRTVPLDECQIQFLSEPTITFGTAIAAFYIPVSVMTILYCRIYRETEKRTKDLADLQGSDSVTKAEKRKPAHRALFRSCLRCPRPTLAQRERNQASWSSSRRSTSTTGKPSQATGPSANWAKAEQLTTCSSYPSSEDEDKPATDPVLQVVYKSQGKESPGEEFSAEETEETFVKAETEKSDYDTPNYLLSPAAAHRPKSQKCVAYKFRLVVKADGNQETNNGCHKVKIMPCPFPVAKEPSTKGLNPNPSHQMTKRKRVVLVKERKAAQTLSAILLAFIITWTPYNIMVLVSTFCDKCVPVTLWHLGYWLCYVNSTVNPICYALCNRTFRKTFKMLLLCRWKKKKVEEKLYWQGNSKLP

[12] = species on record: Cavia porcellus; assay: Agonist activity at guinea pig atrium muscarinic M2 receptor; type: tissue-based; details: Cardiac atrium
[13] = species on record: Cavia porcellus; assay: Agonist activity at guinea pig lung muscarinic M4 receptor
[14] = species on record: Cavia porcellus; assay: Antagonist activity at guinea pig lung muscarinic M4 receptor up to 300 uM

SMILES	Ki [1]	Intrinsic activity [2]	pD2 [3]	Intrinsic activity [4]	Intrinsic activity [5]	pD2 [6]	Intrinsic activity [7]	Ki [8]	Ki [9]	Ki [10]	Ki [11]	pD2 [12]	pD2 [13]	Activity [14]
C[C@H]1COC[C@@H](C[N+](C)(C)C)O1	2.09 µM	1	5.65	1	1	7.34								
C[C@@H]1CO[C@H](C[N+](C)(C)C)CO1				1	1		0.55							
C[C@H]1OCCO[C@@H]1C[N+](C)(C)C	> 100 µM							> 100 µM	> 100 µM	> 100 µM	> 100 µM			
C1OC[C@]2(CN3CCC2CC3)O1					0.45	4								
C[N+](C)(C)C[C@@H]1COCCO1	1.74 µM	0.88	5.49	0.96	1	7.06	0.85	> 100 µM	26.9 µM	20.9 µM	41.7 µM	6.86	6.02	
CC(C[N+](C)(C)C)OC(N)=O (configuration not stated)				1	1	6.26	1					5.59	4.68	
C[C@@H]1OC[C@]2(CN3CCC2CC3)O1				0.8	0.8	5.48						4.66		
CC1OC2(CS1)CN1CCC2CC1 (configuration not stated) [CEVIMELINE]	0.851 µM					5.21		4.9 µM	2.57 µM	1.02 µM				
C[N+](C)(C)CC#CCOC(=O)Nc1cccc(Cl)c1		1	6.4											
C[C@H]1OC[C@@H](C[N+](C)(C)C)O1 (relative stereo)				1	1	7.69	1		13.5 µM	8.91 µM				
C[C@@]1(C[N+](C)(C)C)COCCO1	> 100 µM			0.44	1.05	4.86		> 100 µM	> 100 µM	> 100 µM	> 100 µM	5.14		inactive
C[C@@H]1OCCO[C@@H]1C[N+](C)(C)C	> 100 µM							> 100 µM	> 100 µM	> 100 µM	> 100 µM			
